Measurements from patent publication US8536132B2, “Lymphatic zip codes in tumors and pre-malignant lesions” (Sanford-Burnham Medical Research Institute, priority 2006, dated 2013).
Entries after “also recorded” stand apart in the source; their conditions may differ. Marks after values point to notes of the source that are not given here.

Experiments:
[1] = test system: K14-HPV16/E2 cervical dysplasia; test: In vivo phage homing to K14-HPV16/E2 cervical dysplasia (CIN-3); parameters: species or system mouse
Experimental: (§1) The following cell lines were maintained in DMEM supplemented with 10% FCS: C8161 human melanoma, MDA-MB-435 human breast cancer, KRIB human osteosarcoma, and human prostate cancer cells PPC1, DU145. LNCaP human prostate cancer cell line was grown in RPMI 1640 medium with 10 mM HEPES, 1 mM sodium pyruvate and 1.5 g/L sodium bicarbonate supplemented with 10% FCS. M12 human prostate cancer cell line was cultured in RPMI 1640 with 5 μg/ml insulin-transferrin-sodium selenite (ITS), 2.5 μg/ml fungizone, 50 μg/ml gentamycin, 0.2 μM dexamethasone, 10 ng/ml epidermal growth factor (EGF), and 5% FCS (Bae et al., 1998). To produce tumors, nude BALB/c and C56BL/6 mice were subcutaneously (C8161, KRIB, and PPC1) or orthotopically ([…], PPC1, DU145, M12, and LNCaP) injected with 1×10^6 tumor cells. Transgenic mouse tumor models included TRAMP prostate cancer, MMTV-PyMT breast cancer, and K14-HPV16 cervical cancer. To initiate cervical carcinogenesis, female K14-HPV16 mice (Arbeit et al., 1994) were treated with 17β-estradiol (E2; (Arbeit et al., 1996; Giraudo et al., 2004). Briefly, one-month-old virgin female transgenic (heterozygous K14-HPV16, 1203#1) and nontransgenic (FVB/n) mice were anesthetized with isoflurane, and continuous release pellets that deliver E2 at doses of 0.05 mg over 60 days (Innovative Research of America, Sarasota, Fla., USA) were implanted subcutaneously in the dorsal back skin. Subsequent pellets were implanted at 3 and 5 months of age for a total of 6 months of hormone treatment. K14-HPV16 mice were maintained in the FVB/n background (FVB/n; The Jackson Laboratory). The mice were maintained in accordance with the University of California, San Francisco (UCSF) institutional guidelines governing the care of laboratory mice. The animal experimentation was approved by Animal Research Committees at UCSF or The Burnham Institute.
(§2) In vivo homing specificity of phage was tested as described (Hoffman, 2004). Briefly, mice bearing tumors were anesthetized and intravenously injected with 5×10^9 pfu of phage. After 7 min, the mice were perfused through the heart with PBS containing 0.5% BSA. The tumor and control organs were dissected from each mouse and the phage were rescued and tittered. For histology analysis, the mice were perfused with 4% PFA 30 min after the injection of phage. Tissues were embedded in Tissue-Tek O.C.T. and 5 μm sections were prepared for phage immunostaining.

[2] = test system: MMTV-PyMT premalignant lesions; test: In vivo phage homing to MMTV-PyMT premalignant lesions; parameters: species or system mouse
Experimental: as §1
(§3) In vivo homing specificity of phage was tested as described (Hoffman, 2004). Briefly, mice bearing tumors were anesthetized and intravenously injected with 5×10^9 pfu of phage. […]

[3] = test system: cell suspension derived from pre-malignant prostate lesions; test: Phage binding to cell suspension derived from pre-malignant prostate lesions; type: cell-based, mouse; conditions: phage clones
Experimental: (§4) An NNK-encoded CX7C library display on T7Select415-1 phage (Novagen) was prepared as previously described (Laakkonen et al., 2002). Phage selection and validation have been described (Hoffman, 2004). A two-step procedure was designed for the selection of peptides targeting the tumor lymphatic vessels of pre-malignant prostate lesions and prostate tumor. First, the phage library was incubated with cells derived from normal prostate to subtract the phage that bind to normal prostate. Second, the anti-podoplanin magnetic beads were used to isolate lymphatic endothelial cells. 2-3 rounds of ex vivo selection and 2-3 rounds of in vivo selections were performed. For the ex vivo selections, cell suspensions were prepared from normal prostates of tumor-free littermates of TRAMP mice, pre-malignant prostates of 14- to 16-week-old TRAMP mice, and tumor tissues of 25- to 28-week-old TRAMP mice. Collagenase IA (1 mg/ml, Sigma) was used to disperse the tissues. About 1×10^7 normal prostate cells were incubated at 4° C. for 3 hrs with […] plaque forming units (pfu) of T7 phage displaying a CX7C peptide library. The samples were centrifuged at 1200 rpm for 10 min, the supernatant (the normal prostate-subtracted phage library) was recovered and then incubated overnight at 4° C. with 5×10^7 cells derived from pre-malignant prostate tissue or prostate tumor. The cells were washed to remove unbound phage, incubated with rat anti-mouse podoplanin for 45 min at 4° C., and washed three times with cold PBS containing 0.5% BSA. Podoplanin-positive cells were then isolated using M450 sheep anti-rat IgG Dynabeads (M450; Dynal, Oslo, Norway). Phage that bound to the podoplanin-positive cell population were rescued and amplified in E. coli. In vivo phage library screening was performed as described (Laakkonen et al., 2002).

[4] = test system: K14-HPV16/E2 and MMTV-PyMT lesions and tumors; test: Fluorescent AGR peptide homing to lesions and tumors of K14-HPV16/E2 and MMTV-PyMT mice; type: in vivo, mouse
Experimental: The frozen sections were prepared for immunohistological analysis.

KRIB xenografts = test: In vivo phage homing to KRIB xenografts; parameters: species or system mouse
Experimental: as §1, §2

K14-HPV16 skin cancer = test: In vivo homing to K14-HPV16 skin cancer; parameters: species or system mouse
Experimental: as §1, §2

[5] = test system: MDA-MB-435 orthotopic xenografts; test: In vivo phage homing to MDA-MB-435 orthotopic xenografts; parameters: species or system mouse
Experimental: as §1, §2

[6] = test system: PPC1 orthotopic xenografts; test: In vivo phage homing to PPC1 orthotopic xenografts; parameters: species or system mouse; conditions: for phage homing to PPC1 orthotopic xenografts (in words): i.v. injected phage
Experimental: as §1, §2

[7] = test system: LNCaP orthotopic xenografts; test: In vivo phage homing to LNCaP orthotopic xenografts; parameters: species or system mouse; conditions: for phage homing to LNCaP xenografts (in words): i.v. injected phage
Experimental: as §1, §2

[8] = test system: DU145 orthotopic xenografts; test: In vivo phage homing to DU145 orthotopic xenografts; parameters: species or system mouse; conditions: for phage homing to DU145 xenografts (in words): i.v. injected phage
Experimental: as §1, §2

PPC1 s.c. xenografts = test: In vivo phage homing to PPC1 s.c. xenografts; parameters: species or system mouse
Experimental: as §1, §3

[9] = test system: tumor derived cell suspensions (TRAMP); test: Phage binding to TRAMP tumor derived cell suspensions; type: cell-based, mouse; conditions: phage clones
Experimental: as §4

[10] = test system: PPC1 tumor-derived cell suspensions; test: REA phage binding to PPC1 tumor-derived cell suspensions; type: cell-based; conditions: listed as REA-phage
[11] = phage homing in vivo, K14-HPV16/E2 cervical dysplasia
[12] = phage homing in vivo, MMTV-PyMT premalignant lesions
[13] = phage homing in vivo, KRIB xenografts
[14] = phage homing in vivo, K14-HPV16 skin cancer
[15] = phage homing in vivo, MDA-MB-435 orthotopic xenografts
[16] = phage homing in vivo, PPC1 orthotopic xenografts
[17] = phage homing in vivo, LNCaP orthotopic xenografts
[18] = phage homing in vivo, DU145 orthotopic xenografts
[19] = phage homing in vivo, PPC1 s.c. xenografts

CAGRRSAYC [homing peptide for pre-malignant TRAMP prostate lesions]
phage homing to K14-HPV16/E2 pre-malignant cervical lesions (in words) ([1]; i.v. injected phage): little homing of the phage
Fold over control phage [1, 11]: 5 fold
Specific Homing [1, 11]: No
phage homing to MMTV-PyMT premalignant lesions (in words) ([2]; i.v. injected phage): little homing of the phage
Fold over control phage [2, 12]: 2 fold
Specific Homing [2, 12]: No
binding to cell suspension from pre-malignant prostate lesions (in words) [3]: bound
peptide binding to MMTV-PyMT dysplastic breast lesion [4]: weakly positive
peptide homing to lesions or malignant tumors in K14-HPV16/E2 and MMTV-PyMT models [4]: no detectable homing of the peptide

CREAGRKAC [homing peptide for prostate tumor lymphatics]
phage homing to KRIB xenografts (in words) (KRIB xenografts; i.v. injected phage): negative for REA binding
Fold over control phage (KRIB xenografts; [13]): 7^‡ fold
Specific Homing (KRIB xenografts; [13]): Yes
homing to K14-HPV16 skin cancers (in words) (K14-HPV16 skin cancer; i.v. injection, K14-HPV16 mice): negative for REA binding
Fold over control phage (K14-HPV16 skin cancer; [14]): 4 fold
Specific Homing (K14-HPV16 skin cancer; [14]): No
phage homing to MDA-MB-435 tumors (in words) ([5]; i.v. injected phage): negative for REA binding
Fold over control phage [5, 15]: 4 fold
Specific Homing [5, 15]: No
phage homing to PPC1 orthotopic xenografts (in words) ([6]; listed as REA phage): homed
phage homing to PPC1 orthotopic xenografts (in words) ([6]; listed as REA-phage): Significant phage homing
Fold over control phage [6, 16]: 25 fold
Specific Homing [6, 16]: Yes
phage homing to LNCaP xenografts (in words) ([7]; listed as REA phage): homed
phage homing to LNCaP xenografts (in words) ([7]; listed as REA-phage): Significant phage homing
Fold over control phage [7, 17]: 20 fold
Specific Homing [7, 17]: Yes
phage homing to DU145 xenografts (in words) ([8]; listed as REA phage): homed
phage homing to DU145 xenografts (in words) ([8]; listed as REA-phage): Significant phage homing
Fold over control phage [8, 18]: 14 fold
Specific Homing [8, 18]: Yes
phage homing to subcutaneous PPC1 xenografts versus orthotopic (in words) (PPC1 s.c. xenografts; i.v. injected phage, 7 min circulation): homed less efficiently
Fold over control phage (PPC1 s.c. xenografts; [19]): 6 fold
Specific Homing (PPC1 s.c. xenografts; [19]): No
binding to TRAMP tumor derived cell suspensions (in words) [9]: robust binding
phage binding to PPC1 tumor-derived cell suspensions (in words) [10]: binds to cell suspensions derived from PPC1 tumors; also recorded: strongly bound
